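Each compound was tested at five concentrations against cells in 96-well plates for 48 hours. GI50 is the concentration that inhibits growth by half. TGI marks complete inhibition of growth.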
Assays:
Experiment in all cases: inhibition of tumour cell growth, NCI panel, 48 h
786-0 renal = tested on: 786-0 renal
HCT-15 colon = tested on: HCT-15 colon
KM12 colon = tested on: KM12 colon
KM20L2 colon = tested on: KM20L2 colon
LXFL 529 NSCLC = tested on: LXFL 529 NSCLC
BT-549 breast = tested on: BT-549 breast
HS 578T breast = tested on: HS 578T breast
MDA-MB-231 breast = tested on: MDA-MB-231 breast
MDA-N = tested on: MDA-N
PC-3 prostate = tested on: PC-3 prostate
T-47D breast = tested on: T-47D breast
MCF7 breast = tested on: MCF7 breast

| Structure (SMILES) | TGI (786-0 renal) [µM] | TGI (HCT-15 colon) [µM] | TGI (KM12 colon) [µM] | TGI (KM20L2 colon) [µM] | TGI (LXFL 529 NSCLC) [µM] | TGI (BT-549 breast) [µM] | TGI (HS 578T breast) [µM] | TGI (MDA-MB-231 breast) [µM] | TGI (MDA-N) [µM] | TGI (PC-3 prostate) [µM] | TGI (T-47D breast) [µM] | TGI (MCF7 breast) [µM] | also measured |
| --- | --- | --- | --- | --- | --- | --- | --- | --- | --- | --- | --- | --- | --- |
| Cc1ccc(S(=O)(=O)N/N=c2\c(C)c(C3=NS(=O)(=O)c4cc(S(N)(=O)=O)c(Cl)cc4N3)oc3c(Cl)cc(Cl)cc23)cc1 | > 100 | > 100 | > 100 | > 100 | > 100 | – | – | – | – | – | – | – | – |
| O=[N+]([O-])c1ccc2c(c1)Nc1c3ccccc3nc3cccc-2c13 | 7.36 | 81.2 | > 100 | – | – | 29.8 | > 100 | > 25.4 | 15.2 | 16.9 | 43.2 | – | – |
| Cc1cc2c(cc1C)[n+](=O)c(C#N)c(Cl)n2[O-] | – | 16.7 | – | – | – | 38.1 | > 100 | 63.8 | 41.6 | > 100 | – | 27.5 | – |
| CC(C)OC(=O)C1=C(O)c2ccccc2S(=O)(=O)N1 | > 100 | > 100 | > 100 | > 100 | > 100 | – | – | – | – | – | – | – | – |
| O=C(O)NCc1ccccc1 (tested in a mixture with another compound) | > 100 | > 100 | > 80.4 | – | – | > 92.3 | > 82.8 | > 72.2 | > 94.4 | > 66.4 | > 81.6 | > 100 | – |
| CCOC(=O)[C@H]1Nc2c(cccc2[N+](=O)[O-])[C@H]2OCC[C@@H]12 | – | > 100 | > 100 | > 100 | > 100 | – | – | – | – | – | – | – | – |
| Oc1c2c(c3c4c1N=CC=4CCN=3)-c1c(Br)cc(Br)cc1CCN2 | – | 15.4 | 9.21 | 8.2 | – | – | – | – | – | – | – | 4.16 | – |
| C=C1CC[C@@H](Br)C(C)(C)[C@]12CCC(C)(O)C(Cl)C2 (stereo partly specified) | – | 30.4 | 33.8 | 32.9 | – | – | – | – | – | – | – | – | – |
| CC(=O)OC/C=C/Cn1ncc(=O)[nH]c1=O | – | > 100 | > 100 | – | – | – | > 100 | > 100 | > 100 | > 100 | > 100 | > 100 | – |
| Nc1nncc2c1ccn2C1OC(CO)C(O)C1O (stereo unspecified) | – | > 100 | > 100 | > 100 | > 100 | – | – | – | – | – | – | – | – |
| CC1CCC(O)(C(C)(C(=O)O)c2ccccc2)CC1 (stereo unspecified) | > 100 | > 100 | > 100 | – | – | > 100 | > 100 | > 100 | > 100 | > 100 | > 100 | – | – |
| COc1cc(N/N=C/C#N)cc(OC)c1OC | – | > 10 | > 10 | – | – | – | > 10 | > 10 | > 10 | > 10 | > 10 | > 10 | – |
| CCOC(=O)Nc1cc2c(c(N)n1)N=C(c1ccccc1)[C@H](C)N2 | – | 17.3 | – | < 0.0001 | > 100 | – | – | – | 0.000122 | – | – | – | GI50 (HCT-15 colon): < 0.1 nM |
| O=C(O)CCSCc1ccc(I)cc1 | > 100 | > 100 | > 100 | – | – | > 100 | > 100 | > 100 | > 100 | > 100 | > 100 | > 100 | – |
| CCC1CN2CCC1CC2 (stereo unspecified) | – | > 100 | > 100 | > 100 | – | – | – | – | – | – | – | > 100 | – |
| O=C(N/C(=C\c1cccc([N+](=O)[O-])c1)c1nc2[nH]c(=S)[nH]c(=O)c2[nH]1)c1ccccc1 | > 100 | > 100 | > 100 | > 100 | > 100 | – | – | – | – | – | – | – | – |
| NC(=S)Nc1cc(Cl)ccc1Cl | – | > 100 | > 100 | > 100 | > 100 | – | – | – | – | – | – | – | – |
| CCCCCCCCCCCCCCCC(=O)OCC1CCCN2CCCCC12 (stereo unspecified) | > 100 | > 100 | > 100 | – | – | > 100 | > 100 | > 100 | > 100 | > 100 | – | > 100 | – |
| C/C(=N\Oc1cc(Cl)ncn1)c1ccccn1 | – | – | > 100 | – | – | > 100 | > 100 | 87.6 | > 100 | > 100 | > 100 | > 100 | – |
| CC[C@H](Nc1nc(N)nc(C)c1C#N)c1nc2cccc(NCc3ccc(C(=O)NO)cc3)c2c(=O)n1-c1ccccc1 | – | 6.25 | 3.29 | – | – | 5.2 | 6.08 | 5.3 | – | 3.3 | 4.66 | 9.06 | GI50 (BT-549 breast): 1560 nM; GI50 (HCT-15 colon): 2290 nM; GI50 (HS 578T breast): 1950 nM; GI50 (KM12 colon): 1700 nM; GI50 (MCF7 breast): 2010 nM; GI50 (MDA-MB-231 breast): 1840 nM; GI50 (PC-3 prostate): 905 nM; GI50 (T-47D breast): 1180 nM |
| O=C(CCl)NC(Cc1ccc(F)cc1)C(=O)O (stereo unspecified) | – | > 100 | > 100 | > 100 | – | – | – | – | – | – | – | > 100 | – |

— PubChem BioAssay (NCI)
